Results published in patent US10604782B2, “High-throughput fluorescent screening assay for inhibitors of gram-negative bacterial iron uptake” (Kansas State University Research Foundation, priority 2015, dated 2020).
≈ marks a conversion by molar mass, not a printed value. Like-named read-outs stand apart in the source and are kept apart here.

Assays:
[1] = tested on: TonB-dependent FeEnt uptake through FepA (E. coli OKN3/pITS23FepAS271C-FM); assay: microbe, parasite or virus in culture; type: cell-based, Escherichia coli; conditions: for IC50: read-out: 50% Inhibition, Concentration (IC50)
[2] = tested on: FeEnt utilization by E. coli OKN3 + pITS23 (FepA); assay: Siderophore nutrition test, FeEnt; type: cell-based, Escherichia coli; conditions: for growth halo phenotype in siderophore nutrition test, in words: 100 μM compound (FIG. 6A)
[3] = tested on: Fc utilization by E. coli OKN3 + pITS23 (transported by FhuA); assay: Siderophore nutrition test, Fc; type: cell-based, Escherichia coli
[4] = tested on: killing of E. coli MG1655 by colicin B (FepA, TonB-dependent); type: cell-based, Escherichia coli
[5] = tested on: FeEnt utilization by A. baumannii; assay: FeEnt siderophore nutrition test in A. baumannii; type: cell-based, Acinetobacter baumannii
[6] = tested on: A. baumannii 17978; assay: Minimal inhibitory concentration assay in LB, A. baumannii; type: cell-based, Acinetobacter baumannii
[7] = tested on: TonB; type: cell-based, Escherichia coli
[8] = tested on: E. coli MG1655; assay: Minimal inhibitory concentration assay in LB; type: cell-based, Escherichia coli; conditions: two-fold dilutions up to […]
[9] = tested on: TonB-dependent FeEnt uptake through FepAS271C-FM; type: cell-based, Escherichia coli
[10] = E. coli OKN3 + pITS23, 50 μM FeEnt, 100 μM compound in DMSO, untreated 1.45 ± 0.123
[11] = E. coli OKN3 + pITS23, 50 μM Fc, 100 μM compound in DMSO, untreated 1.54 ± 0.105
[12] = percent killing of MG1655 by ColB in the presence of sub-toxic concentration of compound in DMSO, untreated 98.34 ± 2.38
[13] = Escherichia coli, MG1655, E. coli MG1655 in LB, dash = MIC >[…], read-out: MIC
[14] = A. baumannii, 50 μM FeEnt, 100 μM compound in DMSO, untreated 1.16 ± 0.065
[15] = Acinetobacter baumannii, 17978, read-out: MIC
[16] = halo increase >5% or no halo, killing prevented by >5%
[17] = Escherichia coli, […], cells pre-incubated 30 minutes at 37° C. with inhibitor
[18] = […], cells pre-incubated 30 minutes at 37° C. with inhibitor

## arsenate
[1]
  100% Inhibition, Concentration (IC100): 180 mM
  IC50: 90 mM

## Thimerosal
[2]
  FeEnt Halo: 0 cm
[3]
  Fc Halo: 0 cm
[4]
  % Colicin B killing: 98.6 ± 0.98%
[5]
  FeEnt Halo: 0 cm
[6]; read-out: MIC
  MIC: 1 µM
[7]
  inhibition in the secondary screens (FeEnt utilization, Fc utilization, ColB killing): inhibition in all three of the three secondary screens

## O=c1oc2c(O)c(O)cc3c(=O)oc4c(O)c(O)cc1c4c23 [Ellagic acid]
[2]
  growth halo phenotype in siderophore nutrition test, in words: two unique halos
[2]; [10]
  FeEnt Halo: 1.61 ± 0.075 cm
[3]; [11]
  Fc Halo: 1.36 ± 0.197 cm
[4]; [12]
  % Colicin B killing: 82.9 ± 3.75%
[8]; [13]
  MIC: > 512 µM
[5]; [14]
  FeEnt Halo: 1.08 ± 0.041 cm
[6]; [15]
  MIC: 256 µM (≈ 77.4 µg/mL)
[7]; [16]
  inhibition in the secondary screens (FeEnt utilization, Fc utilization, ColB killing): inhibitory in two of the three secondary assays

## O=C1C(Cl)=C(Cl)C(=O)C(Cl)=C1Cl [P-Chloranil]
[2]; [10]
  FeEnt Halo: 1.51 ± 0.148 cm
[3]; [11]
  Fc Halo: 1.57 ± 0.059 cm
[4]
  % Colicin B killing: 93.0 ± 3.36%
[8]; E. coli MG1655 in LB, […]
  MIC: — (If MIC >512 μM, value not listed)
[5]; [14]
  FeEnt Halo: 1.14 ± 0.015 cm
[6]; A. baumannii 17978 in LB, two-fold dilutions up to […], […]
  MIC: — (If MIC >512 μM, value not listed)
[7]
  differential impact on transport of FeEnt, Fc and ColB, in words: inhibited ColB but not FeEnt or Fc transport

## O=c1c2ccccc2[se]n1-c1ccccc1 [Ebselen]
[2]; [10]
  FeEnt Halo: 0 cm
[3]; [11]
  Fc Halo: 0 cm
[4]; [12]
  % Colicin B killing: 93.4 ± 2.25%
[8]; E. coli MG1655 in LB, dash = MIC >[…], read-out: MIC
  MIC: 128 µM (≈ 35.1 µg/mL)
[5]; [14]
  FeEnt Halo: 0 cm
[6]; [15]
  MIC: 32 µM (≈ 8.77 µg/mL)

## C[C@@](Cc1ccc(O)c(O)c1)(NN)C(=O)O [Carbidopa]
[2]; [10]
  FeEnt Halo: 1.58 ± 0.089 cm
[3]; [11]
  Fc Halo: 1.65 ± 0.055 cm
[4]; [12]
  % Colicin B killing: 96.0 ± 2.0%
[8]; [13]
  MIC: > 512 µM
[5]; [14]
  FeEnt Halo: 1.10 ± 0.015 cm
[6]; [15]
  MIC: > 512 µM

## [N-]=[N+]=[N-] [Azide, azide]
[1]
  100% Inhibition, Concentration (IC100): 18 mM
  IC50: 9 mM

## Cc1cc(N)c2ccccc2[n+]1CCCCCCCCCC[n+]1c(C)cc(N)c2ccccc21 [Dequalinium Chloride]
[2]; [10]
  FeEnt Halo: 1.43 ± 0.110 cm
[3]; [11]
  Fc Halo: 1.55 ± 0.131 cm
[4]; [12]
  % Colicin B killing: 98.7 ± 1.10%
[8]; [13]
  MIC: > 512 µM
[5]; [14]
  FeEnt Halo: 1.14 ± 0.017 cm
[6]; [15]
  MIC: > 512 µM

## N.N.O=C([O-])C1(C(=O)[O-])CCC1.[Pt+2] [Carboplatin]
[2]; [10]
  FeEnt Halo: 1.54 ± 0.031 cm
[3]; [11]
  Fc Halo: 1.62 ± 0.015 cm
[4]; [12]
  % Colicin B killing: 100 ± 0.00%
[8]; E. coli MG1655 in LB, dash = MIC >[…]
  MIC: — (If MIC >512 μM, value not listed)
[5]; [14]
  FeEnt Halo: 1.10 ± 0.050 cm
[6]; A. baumannii 17978 in LB, two-fold dilutions up to […], dash = MIC >[…]
  MIC: — (If MIC >512 μM, value not listed)

## N#CC(C#N)=NNc1cccc(Cl)c1 [CCCP, carbonyl cyanide m-chlorophenylhydrazone]
[1]; [17]
  IC50: 0.005 mM
[1]; [18]
  100% Inhibition, Concentration (IC100): 0.01 mM
[9]; 96-well plate, 10 nM FeEnt, CCCP 20 uM, 50 min time course (FIG. 2B)
  fluorescence recovery (FeEnt uptake) in words: fully prevented fluorescence recovery
[9]; 384-well plate format, increasing concentrations of CCCP (FIG. 3)
  recovered fluorescence in words: dose-responsive decrease in recovered fluorescence

## O=[N+]([O-])c1ccc(O)c([N+](=O)[O-])c1 [DNP, 2,4-dinitrophenol]
[1]; [17]
  IC50: 0.75 mM
[1]; FeEnt plus energy poison added to cells (FIG. 1A)
  effect on FeEnt binding and transport in words: did not affect binding but prevented transport
[1]; [18]
  100% Inhibition, Concentration (IC100): 1.5 mM

## CC(=O)[O-].CC(=O)[O-].[Cd+2] [Cadmium acetate]
[2]
  FeEnt Halo: 2.22 ± 0.076 cm
[3]
  Fc Halo: 2.08 ± 0.42 cm
[4]
  % Colicin B killing: 98.4 ± 0.43%
[5]
  FeEnt Halo: 0 cm
[6]; read-out: MIC
  MIC: 256 µM
[7]
  inhibition in the secondary screens (FeEnt utilization, Fc utilization, ColB killing): inhibitory in two of the three secondary assays

## COc1cccc(O)c1O [3-Methoxycatechol]
[2]; [10]
  FeEnt Halo: 1.50 ± 0.100 cm
[3]; [11]
  Fc Halo: 1.60 ± 0.500 cm
[4]; [12]
  % Colicin B killing: 98.2 ± 2.27%
[8]; [13]
  MIC: > 512 µM
[5]; [14]
  FeEnt Halo: 1.12 ± 0.025 cm
[6]; [15]
  MIC: > 512 µM

## Zinc pyrithione
[2]
  FeEnt Halo: 0 cm
[3]
  Fc Halo: 0 cm
[4]
  % Colicin B killing: 20.4 ± 5.90%
[5]
  FeEnt Halo: 0 cm
[6]; read-out: MIC
  MIC: 16 µM
[7]
  inhibition in the secondary screens (FeEnt utilization, Fc utilization, ColB killing): inhibition in all three of the three secondary screens

## O=c1cc(-c2ccccc2)oc2cc(O)c(O)c(O)c12 [Baicalein]
[2]
  growth halo phenotype in siderophore nutrition test, in words: two unique halos
[2]; [10]
  FeEnt Halo: 1.65 ± 0.050 cm
[3]; [11]
  Fc Halo: 1.65 ± 0.045 cm
[4]; [12]
  % Colicin B killing: 54.6 ± 13.2%
[8]; [13]
  MIC: > 512 µM
[5]; [14]
  FeEnt Halo: 1.23 ± 0.098 cm
[6]; [15]
  MIC: > 512 µM
[7]; [16]
  inhibition in the secondary screens (FeEnt utilization, Fc utilization, ColB killing): inhibition in all three of the three secondary screens
